Tested on: NRK-52E cells
Assay: High content imaging of lysosomes and nuclei (LysoView 633 / SYTO 16)
Assay type: cell-based, rat
Description: For high content imaging, NRK-52E and RPTEC/TERT1 cells were cultivated in µ-clear half well area microtiter plates (Greiner) according to the protocol described for the cytotoxicity assay with slight modification. Briefly, NRK-52E cells were seeded at 5,000 cells in 100 µL growth medium per well and were incubated under standard growth conditions for 48 h prior to treatment. RPTEC/TERT1 cells were seeded at 15,000 cells in 100 µL growth medium per well and incubated under standard growth conditions for 7–8 days, until cells reached confluence and started to differentiate. This was indicated by the formation of three-dimensional structures referred to as domes which were identified by regular microscopic inspection of the plates. Only differentiated cell cultures with detectable domes were assayed. Cells of both cell lines were treated with serially diluted Polymyxin B sulfate (concentration range 7.8 to 2,000 µM) for 1, 2, 4, 6, or up to 24 h. The assay was carried out on three biological replicates defined as three different non-consecutive passages of the cell culture. Each biological replicate at each treatment concentration was assayed in triplicate wells per plate.
Following treatment, cells were stained with two different combinations of fluorescent dyes: NRK-52E cells with 50 pg/μL LysoView™ 633 (Biotium) and 1 µM SYTO 16 (Thermo Scientific), respectively, for lysosomes and nuclei; RPTEC/TERT1 cells with 10 nM LysoTracker™ Red (Thermo Scientific) and 10 ng/μL Hoechst 33342 (Merck-Sigma Aldrich), respectively, for lysosomes and nuclei. For each cell line a staining solution was obtained by mixing the lysosomes and nuclei dyes in cell culture medium at the concentrations indicated above. […]
Images were acquired with a fully automated fluorescence confocal Opera™ QEHS system (PerkinElmer, United Kingdom) using a ×40 air UPlanApo objective (Olympus) with 0.85 numerical aperture. […]
The images were analyzed by custom-made image analysis scripts either with the imaging analysis software Acapella (version 2.8 PerkinElmer) or Columbus (version 2.4.0 PerkinElmer). […]

## Polymyxin B
NRK-52E, 250 µM
  Treatment time at which changes in nuclei area and nuclei intensity appeared: 20 h
NRK-52E, 500 µM
  Treatment time at which lysosomal effects with nuclear changes first appeared: 12 h
NRK-52E, 1,000 and 2000 µM
  Treatment time from which lysosomal effects were accompanied by nuclear changes: 8 h

From PMC9061999, “Application of the Adverse Outcome Pathway Concept to In Vitro Nephrotoxicity Assessment: Kidney Injury due to Receptor-Mediated Endocytosis and Lysosomal Overload as a Case Study” (Frontiers in Toxicology, 2022)
